The record followed here is the PolyMetriX glass transition set.

Each structure is given as a SMILES string.

`*C(=O)OCCOCCOCCOC(=O)c1ccc(N2C(=O)c3ccc(*)cc3C2=O)cc1` (repeat unit) gave a glass transition temperature of 63.00 °C.
`*CCOC(=O)c1ccc(O*)cc1` (repeat unit) had a glass transition temperature of 84.00 °C.
In the case of `*CCOCCOCCOC(=O)c1ccc(-c2ccc(-c3ccc(C(=O)O*)cc3)cc2)cc1` (repeat unit), the glass transition temperature amounted to 50.00 °C.
With `*CCOCCOCCOC(=O)c1ccc(-c2ccc(C(=O)O*)cc2)cc1` (repeat unit) the figure was 20.00 °C.
`*CCOCCOCCOCCOC(=O)c1ccc(-c2ccc(-c3ccc(C(=O)O*)cc3)cc2)cc1` (repeat unit) came in with a glass transition temperature of 40.00 °C.
The compound `*CCOCCOCCOCCOCCOCCOC(=O)c1cccc(C(=O)O*)c1` (repeat unit) came in with a glass transition temperature of -23.50 °C.
With `*CCOCCOCCOCCOCCOCCOCCOCCOCCOCCOC(=O)c1ccc(-c2ccc(-c3ccc(C(=O)O*)cc3)cc2)cc1` (repeat unit) the figure was 40.00 °C; with `*CCOCCOc1ccc(N/C=N/c2ccc(O*)cc2)cc1` (repeat unit), 62.00 °C.
In turn, `*CCOc1ccc(/C=C2\CC/C(=C\c3ccc(OCCOP(=O)(O*)OCC)c(OC)c3)C2=O)cc1OC` (repeat unit) yielded a glass transition temperature of 80.00 °C.
Take `*CCOc1ccc(C2(c3ccc(OCCO[Si](O*)(c4ccccc4)c4ccccc4)cc3)c3ccccc3-c3ccccc32)cc1` (repeat unit): the glass transition temperature amounted to 97.00 °C.
Compound `*CCOc1ccc(S(=O)(=O)c2ccc(OCCOP(=O)(O*)Oc3ccc(C)cc3)cc2)cc1` (repeat unit) showed a glass transition temperature of 46.00 °C.
As for `*CCOc1ccc(S(=O)(=O)c2ccc(OCCOP(=O)(O*)Oc3ccccc3)cc2)cc1` (repeat unit), the glass transition temperature stood at 49.00 °C.
Compound `*Cc1ccc(COC(=O)c2cccc(C(=O)O*)c2)cc1` (repeat unit) gave a glass transition temperature of 143.00 °C.
`*O[SiH](*)C` (repeat unit) gave a glass transition temperature of -3.39 °C.
`*O[Si](*)(C)C1CC2CC1C1C3CC(CC3C(=O)OC(C)(C)C)C21` (repeat unit) yielded a glass transition temperature of 90.00 °C.
With `*O[Si](*)(C)C1CC2CC1CC2OC(=O)OC(C)(C)C` (repeat unit) the figure was 60.00 °C; with `*O[Si](*)(C)C=C` (repeat unit), -129.00 °C; with `*O[Si](*)(C)CCCC(=O)OCC` (repeat unit), -82.00 °C.
As for `*O[Si](*)(C)CCCC(=O)OCCCC` (repeat unit), the glass transition temperature is -91.00 °C.
With `*O[Si](*)(C)CCCC(=O)OCCO` (repeat unit) the figure was -58.00 °C; with `*O[Si](*)(C)CCCCCCCC` (repeat unit), -92.00 °C; with `*O[Si](*)(C)CCCCCCCCCCC(=O)OCCC(F)(F)C(F)(F)C(F)(F)C(F)(F)C(F)(F)C(F)(F)C(F)(F)C(F)(F)F` (repeat unit), -78.00 °C.
For `*O[Si](*)(C)CCCCCCCCCCC(=O)Oc1ccc(-c2ccc(OC(=O)CCCCC(=O)OC3CC(C)CCC3C(C)C)cc2)cc1` (repeat unit), the glass transition temperature stood at 16.50 °C.
`*O[Si](*)(C)CCCCCCCCCCC(=O)Oc1ccc(C(=O)Oc2ccc(-c3ccc(OCC(C)CC)cc3)cc2)cc1` (repeat unit) returned a glass transition temperature of 26.70 °C.
Consider `*O[Si](*)(C)CCCCCCCCCCC(=O)Oc1ccc(C(=O)Oc2ccc(OC(=O)CCCCC(=O)OC3CC(C)CCC3C(C)C)cc2)cc1` (repeat unit), for which the glass transition temperature is 20.70 °C.
To `*O[Si](*)(C)CCCCCCCCCCC(=O)Oc1ccc(C(=O)Oc2ccc(OC(=O)c3ccc(OCC(C)CC)cc3)cc2)cc1` (repeat unit) belongs 28.50 °C; to `*O[Si](*)(C)CCCCCCCCCCC(=O)Oc1ccc2cc(C(=O)OC3CCC4(C)C(=CCC5C4CCC4(C)C(C(C)CCCC(C)C)CCC54)C3)ccc2c1` (repeat unit), 27.00 °C; to `*O[Si](*)(C)CCCCCCCCCCCOc1ccc(-c2ccc(C(=O)Oc3ccc(C(=O)OC(C)C(=O)OC(C)C(=O)OC(C)C(=O)OCC(C)CC)cc3)cc2)cc1` (repeat unit), 15.00 °C.
With `*O[Si](C)(C)O[Si](*)(C)CCCCOc1ccc(-c2ccc(C#N)cc2)cc1` (repeat unit) the figure was -5.50 °C.
In the case of `*O[Si](C)(C)O[Si](C)(C)O[SiH](*)O[Si](C)(C)C=C` (repeat unit), the glass transition temperature is -68.00 °C.
Regarding `*O[Si](C)(C)O[Si](C)(C)O[Si](C)(C)O[Si](C)(C)O[Si](C)(C)c1ccc(Oc2ccc([Si](*)(C)C)cc2)cc1` (repeat unit), the glass transition temperature is -65.00 °C.
With `*O[Si](C)(C)O[Si](C)(C)O[Si](C)(C)O[Si](C)(C)c1ccc([Si](*)(C)C)cc1` (repeat unit) the figure was -72.00 °C; with `*O[Si](C)(C)O[Si](C)(C)O[Si](C)(C)O[Si](C)(c1ccccc1)c1cccc([Si](*)(C)c2ccccc2)c1` (repeat unit), -42.00 °C.
Compound `*O[Si](C)(C)O[Si](C)(C)O[Si](C)(C)c1ccc(Oc2ccc([Si](*)(C)C)cc2)cc1` (repeat unit) displayed a glass transition temperature of -37.00 °C.
`*O[Si](C)(C)O[Si](C)(C)O[Si](C)(C)c1ccc([Si](*)(C)C)cc1` (repeat unit) registered a glass transition temperature of -62.00 °C.
With `*O[Si](C)(C)c1cc(OCCO)c([Si](*)(C)C)cc1OCCO` (repeat unit) the figure was 73.00 °C; with `*O[Si](C)(C)c1ccc([Si](C)(C)O[SiH](*)CCC(F)(F)F)cc1` (repeat unit), -37.00 °C; with `*O[Si](C)(C)c1ccc2cc([Si](*)(C)C)ccc2c1` (repeat unit), 29.00 °C.
`*O[Si](C)(C)c1ccc2cc3cc([Si](*)(C)C)ccc3cc2c1` (repeat unit): the glass transition temperature worked out at 118.00 °C.
With `*O[Si](C)(C)c1ccc2ccc3c([Si](*)(C)C)ccc4ccc1c2c43` (repeat unit) the figure was 65.00 °C; with `*O[Si](C)(C)c1cccc(C(F)(F)C(F)(F)C(F)(F)c2cccc([Si](*)(C)C)c2)c1` (repeat unit), -8.00 °C; with `*O[Si](C)(C)c1cccc([Si](*)(C)C)c1` (repeat unit), -48.00 °C.
With `*O[Si](O[Si](C)(C)c1ccc([Si](*)(C)C)cc1)(c1ccccc1)c1ccccc1` (repeat unit) the figure was 0.00 °C; with `*Oc1ccc(/C=N/N=C/c2ccc(Oc3ccc(C(=O)c4ccc(*)cc4)cc3)cc2)cc1` (repeat unit), 179.00 °C.
To `*Oc1ccc(C(=O)c2ccc(Oc3ccc(C(=O)c4c(C(=O)c5ccc(*)cc5)c(-c5ccccc5)c(-c5ccc6ccccc6c5)c(-c5ccc6ccccc6c5)c4-c4ccccc4)cc3)cc2)cc1` (repeat unit) belongs 290.00 °C.
Regarding `*c1ccc(Oc2ccc(C(=O)c3ccc(Oc4ccc(-c5nnc(*)c6c(-c7ccc(F)cc7)c(-c7ccc(F)cc7)c(-c7ccc(F)cc7)c(-c7ccc(F)cc7)c56)cc4)cc3)cc2)cc1` (repeat unit), the glass transition temperature came out at 313.00 °C.
